Measured values published in patent US20120270237A9, “METHODS FOR THE IDENTIFICATION OF KINASE INTERACTING MOLECULES AND FOR THE PURIFICATION OF KINASE PROTEINS” (Cellzone AG, priority 2009, published 2012).

What was measured:
[1] = molecular target: AMPKa1 (Homo sapiens, UniProt Q13131); test: Kinobeads competition binding, HL60 cell lysate; parameters: endogenous in cells; host or cells: HL60 cells; conditions: 10 μM free compound
Procedure: (§1) To one aliquot of cell lysate 10 μM of the free compound (FIG. 3, CZC31326) was added and allowed to bind to proteins in the lysate. Then the affinity matrix with the immobilized compound (Example 1) was added to capture proteins that were not interacting with the previously added free compound. Beads were separated from the lysate and bead bound proteins were eluted in SDS sample buffer and subsequently separated by SDS-Polyacrylamide gel electrophoresis (FIG. 4). Suitable gel bands were cut out and subjected to in-gel proteolytic digestion with trypsin. The second lysate aliquot was processed identically, however no free compound was added (DMSO solvent control). Peptides originating from samples 1 and 2 were labeled with iTRAQ reagents (iTRAQ 114 and iTRAQ 117) and the combined samples were analyzed with a nano-flow liquid chromatography system coupled online to a tandem mass spectrometer (LC-MS/MS) experiment followed by iTRAQ reporter ion quantification in the MS/MS spectra (Ross et al., 2004. Mol. Cell. Proteomics 3(12):1154-1169). Further experimental protocols can be found in WO2006/134056 and a previous publication (Bantscheff et al., 2007. Nature Biotechnology 25, 1035-1044). Sepharose-beads with the immobilized compound (100 μl beads per pull-down experiment) were equilibrated in lysis buffer and incubated with a cell lysate sample containing 50 mg of protein on an end-over-end shaker (Roto Shake Genie, Scientific Industries Inc.) for 2 hours at 4° C. Beads were collected, transferred to Mobicol-columns (MoBiTech 10055) and washed with 10 ml lysis buffer containing 0.4% NP40 detergent, followed by 5 ml lysis buffer containing 0.2% detergent. To elute bound proteins, 60 μl 2×SDS sample buffer was added to the column. The column was incubated for 30 minutes at 50° C. and the eluate was transferred to a siliconized microfuge tube by centrifugation. Proteins were then alkylated with 108 mM iodoacetamid. Proteins were then separated by SDS-Polyacrylamide electrophoresis (SDS-PAGE). The peptide extracts of samples treated with 10 μM of free compound (CZC31326) and the solvent control (0.5% DMSO) were treated with different variants of the isobaric tagging reagent (iTRAQ Reagents Multiplex Kit, part number 4352135, Applied Biosystems, Foster City, Calif., USA). The iTRAQ reagents are a set of multiplexed, amine-specific, stable isotope reagents that can label peptides on amino groups in up to four different biological samples enabling simultaneous identification and quantitation of peptides. The iTRAQ reagents were used according to instructions provided by the manufacturer. The samples were resuspended in 10 μl 50 mM TEAB solution, pH 8.5 and 10 μl ethanol were added. The iTRAQ reagent was dissolved in 120 μl ethanol and 10 μl of reagent solution were added to the sample. The labeling reaction was performed at room temperature for one hour on a horizontal shaker and stopped by adding 5 μl of 100 mM TEAB and 100 mM glycine in water. The two labeled sampled were then combined, dried in a vacuum centrifuge and resuspended in 10 μl of 0.1% formic acid in water. Relative protein quantitation was performed using peak areas of iTRAQ reporter ion signals essentially as described in an earlier publication (Bantscheff et al., 2007. Nature Biotechnology 25, 1035-1044).

[2] = molecular target: T1, AurA (Homo sapiens, UniProt O14965); test: Kinobeads competition binding, HL60 cell lysate; parameters: endogenous in cells; host or cells: HL60 cells; conditions: 10 μM free compound
T1 sequence (O14965 1-403): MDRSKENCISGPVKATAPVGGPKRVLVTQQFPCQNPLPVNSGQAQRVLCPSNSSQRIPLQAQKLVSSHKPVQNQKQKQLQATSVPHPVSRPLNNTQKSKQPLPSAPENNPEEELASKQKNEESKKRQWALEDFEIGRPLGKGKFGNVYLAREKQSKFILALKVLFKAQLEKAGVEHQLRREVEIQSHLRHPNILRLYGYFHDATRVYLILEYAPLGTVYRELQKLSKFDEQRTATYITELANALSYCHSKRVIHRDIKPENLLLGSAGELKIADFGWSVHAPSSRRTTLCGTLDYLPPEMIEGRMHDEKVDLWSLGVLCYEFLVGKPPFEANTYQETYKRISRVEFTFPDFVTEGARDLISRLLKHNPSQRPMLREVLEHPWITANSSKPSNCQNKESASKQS
Procedure: as §1

[3] = molecular target: CDK5 (Homo sapiens, UniProt Q00535); test: Kinobeads competition binding, HL60 cell lysate; parameters: endogenous in cells; host or cells: HL60 cells; conditions: 10 μM free compound
Sequence of CDK5 (Q00535 whole entry): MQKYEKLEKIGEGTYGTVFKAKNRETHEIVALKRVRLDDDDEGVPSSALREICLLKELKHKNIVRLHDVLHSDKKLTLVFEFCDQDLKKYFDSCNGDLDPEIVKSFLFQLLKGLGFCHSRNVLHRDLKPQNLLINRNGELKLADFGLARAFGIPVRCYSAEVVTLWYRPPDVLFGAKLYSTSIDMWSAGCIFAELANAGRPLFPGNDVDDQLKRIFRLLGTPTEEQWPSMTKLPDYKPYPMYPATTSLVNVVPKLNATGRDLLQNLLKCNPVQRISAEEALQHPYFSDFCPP
Procedure: as §1

[4] = molecular target: CHK1 (Homo sapiens, UniProt O14757); test: Kinobeads competition binding, HL60 cell lysate; parameters: endogenous in cells; host or cells: HL60 cells; conditions: 10 μM free compound
Sequence of CHK1 (O14757 whole entry): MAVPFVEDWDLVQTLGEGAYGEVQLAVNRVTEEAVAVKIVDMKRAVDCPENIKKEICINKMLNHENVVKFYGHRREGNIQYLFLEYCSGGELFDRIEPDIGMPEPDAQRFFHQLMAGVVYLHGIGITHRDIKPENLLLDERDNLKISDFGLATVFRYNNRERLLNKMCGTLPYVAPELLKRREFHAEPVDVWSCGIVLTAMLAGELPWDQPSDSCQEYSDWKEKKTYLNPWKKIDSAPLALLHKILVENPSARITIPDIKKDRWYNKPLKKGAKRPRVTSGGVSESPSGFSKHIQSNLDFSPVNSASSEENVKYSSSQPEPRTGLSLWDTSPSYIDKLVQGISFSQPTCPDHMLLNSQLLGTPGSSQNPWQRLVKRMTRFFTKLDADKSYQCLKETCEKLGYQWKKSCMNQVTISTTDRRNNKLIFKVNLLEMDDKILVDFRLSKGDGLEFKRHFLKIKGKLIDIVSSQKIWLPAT
Procedure: as §1

[5] = molecular target: CaMK2g (Homo sapiens, UniProt Q13555); test: Kinobeads competition binding, HL60 cell lysate; parameters: endogenous in cells; host or cells: HL60 cells; conditions: 10 μM free compound
Sequence of CaMK2g (Q13555 whole entry): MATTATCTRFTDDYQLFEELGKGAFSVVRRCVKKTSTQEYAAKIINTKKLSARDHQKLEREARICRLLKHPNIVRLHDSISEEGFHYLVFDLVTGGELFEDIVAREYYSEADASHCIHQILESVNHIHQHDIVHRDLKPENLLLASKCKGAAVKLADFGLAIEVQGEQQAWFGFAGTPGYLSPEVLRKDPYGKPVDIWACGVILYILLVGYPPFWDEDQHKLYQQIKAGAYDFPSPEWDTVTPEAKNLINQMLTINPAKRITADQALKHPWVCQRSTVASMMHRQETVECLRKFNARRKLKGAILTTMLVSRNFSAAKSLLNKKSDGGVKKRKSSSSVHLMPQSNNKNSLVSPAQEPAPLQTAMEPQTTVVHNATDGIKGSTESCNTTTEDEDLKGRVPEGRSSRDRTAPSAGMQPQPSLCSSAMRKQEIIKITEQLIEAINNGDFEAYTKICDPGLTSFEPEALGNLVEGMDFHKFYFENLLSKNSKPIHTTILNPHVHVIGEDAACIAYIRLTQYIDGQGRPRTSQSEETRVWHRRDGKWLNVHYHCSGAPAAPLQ
Procedure: as §1

[6] = molecular target: QIK (Homo sapiens, UniProt Q9H0K1); test: Kinobeads competition binding, HL60 cell lysate; parameters: endogenous in cells; host or cells: HL60 cells; conditions: 10 μM free compound
Sequence of QIK (Q9H0K1 whole entry): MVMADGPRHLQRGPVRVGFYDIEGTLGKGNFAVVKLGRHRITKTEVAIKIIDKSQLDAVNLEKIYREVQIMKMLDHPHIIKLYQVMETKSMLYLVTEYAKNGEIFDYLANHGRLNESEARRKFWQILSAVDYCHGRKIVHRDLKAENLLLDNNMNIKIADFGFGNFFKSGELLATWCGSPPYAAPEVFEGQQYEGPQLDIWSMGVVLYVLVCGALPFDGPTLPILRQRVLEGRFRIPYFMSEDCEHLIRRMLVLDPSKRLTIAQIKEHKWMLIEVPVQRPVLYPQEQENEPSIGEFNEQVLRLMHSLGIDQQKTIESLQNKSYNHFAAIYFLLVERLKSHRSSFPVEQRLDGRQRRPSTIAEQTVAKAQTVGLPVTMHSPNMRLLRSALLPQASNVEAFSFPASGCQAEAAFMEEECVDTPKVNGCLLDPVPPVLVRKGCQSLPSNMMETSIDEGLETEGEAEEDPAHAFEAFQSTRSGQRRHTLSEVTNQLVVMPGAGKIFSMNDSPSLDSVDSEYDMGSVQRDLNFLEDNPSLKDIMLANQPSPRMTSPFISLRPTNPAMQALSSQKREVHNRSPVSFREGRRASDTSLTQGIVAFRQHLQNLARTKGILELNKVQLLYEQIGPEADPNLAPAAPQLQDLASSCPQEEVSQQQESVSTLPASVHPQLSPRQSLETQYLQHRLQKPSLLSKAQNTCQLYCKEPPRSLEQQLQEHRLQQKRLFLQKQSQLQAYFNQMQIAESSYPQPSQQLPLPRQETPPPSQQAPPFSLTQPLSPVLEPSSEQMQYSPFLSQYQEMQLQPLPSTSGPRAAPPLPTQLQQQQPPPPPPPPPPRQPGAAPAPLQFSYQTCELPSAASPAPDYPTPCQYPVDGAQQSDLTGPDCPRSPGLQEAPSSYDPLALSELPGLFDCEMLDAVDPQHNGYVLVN
Procedure: as §1

[7] = molecular target: RSK3 (Homo sapiens, UniProt Q15349); test: Kinobeads competition binding, HL60 cell lysate; parameters: endogenous in cells; host or cells: HL60 cells; conditions: 10 μM free compound
Sequence of RSK3 (Q15349 whole entry): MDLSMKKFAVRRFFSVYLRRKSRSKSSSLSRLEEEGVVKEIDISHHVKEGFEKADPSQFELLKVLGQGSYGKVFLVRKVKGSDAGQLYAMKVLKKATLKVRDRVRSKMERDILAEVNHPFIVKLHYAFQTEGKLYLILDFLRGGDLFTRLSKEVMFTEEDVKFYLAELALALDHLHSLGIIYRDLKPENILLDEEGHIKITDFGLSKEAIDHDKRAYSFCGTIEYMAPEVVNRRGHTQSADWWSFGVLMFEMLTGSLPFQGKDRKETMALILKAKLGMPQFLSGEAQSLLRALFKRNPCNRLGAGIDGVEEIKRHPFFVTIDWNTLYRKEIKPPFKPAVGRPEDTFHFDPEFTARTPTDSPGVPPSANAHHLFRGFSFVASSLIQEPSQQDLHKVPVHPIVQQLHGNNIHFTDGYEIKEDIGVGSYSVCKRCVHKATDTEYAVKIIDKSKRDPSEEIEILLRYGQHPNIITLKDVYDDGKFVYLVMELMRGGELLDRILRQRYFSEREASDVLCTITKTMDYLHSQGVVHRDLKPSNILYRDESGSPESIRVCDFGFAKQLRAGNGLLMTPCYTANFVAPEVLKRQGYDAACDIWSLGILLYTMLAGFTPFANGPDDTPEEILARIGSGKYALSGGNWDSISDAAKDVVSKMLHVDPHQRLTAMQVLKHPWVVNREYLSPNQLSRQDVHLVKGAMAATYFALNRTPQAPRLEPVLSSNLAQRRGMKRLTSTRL
Procedure: as §1

[8] = molecular target: STK33 (Homo sapiens, UniProt Q9BYT3); test: Kinobeads competition binding, L-363 cell lysate; parameters: endogenous in cells; host or cells: L-363 cells (treated with MG132 before harvest); conditions: 10 μM free compound, L-363 lysate
Sequence of STK33 (Q9BYT3 whole entry): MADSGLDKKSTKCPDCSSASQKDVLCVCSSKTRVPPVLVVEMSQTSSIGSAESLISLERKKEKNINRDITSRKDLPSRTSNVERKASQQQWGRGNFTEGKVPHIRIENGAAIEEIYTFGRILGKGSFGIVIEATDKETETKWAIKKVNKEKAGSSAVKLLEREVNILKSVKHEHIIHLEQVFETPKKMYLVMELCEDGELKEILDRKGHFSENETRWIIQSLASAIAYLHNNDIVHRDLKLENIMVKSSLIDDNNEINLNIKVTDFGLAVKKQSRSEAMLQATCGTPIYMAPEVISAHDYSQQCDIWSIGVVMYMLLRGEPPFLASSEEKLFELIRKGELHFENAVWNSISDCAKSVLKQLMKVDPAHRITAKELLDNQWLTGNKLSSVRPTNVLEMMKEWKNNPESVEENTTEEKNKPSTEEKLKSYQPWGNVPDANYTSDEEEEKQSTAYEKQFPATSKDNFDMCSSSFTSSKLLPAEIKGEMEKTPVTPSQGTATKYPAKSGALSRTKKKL
Procedure: To one aliquot of cell lysate 10 μM of the free compound (FIG. 3, CZC31326) was added and allowed to bind to proteins in the lysate. Then the affinity matrix with the immobilized compound was added to capture proteins that were not interacting with the previously added free compound. Beads were separated from the lysate and bead bound proteins were eluted in SDS sample buffer and subsequently separated by SDS-Polyacrylamide gel electrophoresis (FIG. 8). Suitable gel bands were cut out and subjected to in-gel proteolytic digestion with trypsin. The second lysate aliquot was processed identically, however no free compound was added (DMSO solvent control). Peptides originating from samples 1 and 2 were labeled with iTRAQ reagents (iTRAQ 114 and iTRAQ 117) and the combined samples were analyzed with a nano-flow liquid chromatography system coupled online to a tandem mass spectrometer (LC-MS/MS) experiment followed by iTRAQ reporter ion quantification in the MS/MS spectra as described in Example 2.
For this experiment the human plasma cell leukaemia line L-363 was used (German Collection of Microorganisms and Cell Cultures, DSMZ number ACC49, Braunschweig, Germany). Cells were treated for three hours with 20 μM of the proteasome inhibitor MG132 (Z-Leu-Leu-Leu-al, Sigma C2211) prior to cell harvesting.

Sequence of AMPKa1 (Q13131 whole entry): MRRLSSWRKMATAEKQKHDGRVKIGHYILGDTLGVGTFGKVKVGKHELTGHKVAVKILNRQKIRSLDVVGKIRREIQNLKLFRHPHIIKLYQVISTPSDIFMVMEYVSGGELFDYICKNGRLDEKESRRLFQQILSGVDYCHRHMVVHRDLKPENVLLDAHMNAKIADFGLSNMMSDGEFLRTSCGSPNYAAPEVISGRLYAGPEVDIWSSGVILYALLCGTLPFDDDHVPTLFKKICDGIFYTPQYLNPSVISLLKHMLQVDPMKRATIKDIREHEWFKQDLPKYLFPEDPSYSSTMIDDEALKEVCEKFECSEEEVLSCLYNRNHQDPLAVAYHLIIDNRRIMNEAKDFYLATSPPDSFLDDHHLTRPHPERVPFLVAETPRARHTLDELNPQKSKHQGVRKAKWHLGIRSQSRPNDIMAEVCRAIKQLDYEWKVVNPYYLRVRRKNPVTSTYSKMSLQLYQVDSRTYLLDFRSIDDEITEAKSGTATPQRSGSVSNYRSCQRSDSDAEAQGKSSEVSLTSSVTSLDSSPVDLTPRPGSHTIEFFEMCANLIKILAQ
Sequence of AMPKa1 (Q9Y478 2-270 partner limits assumed): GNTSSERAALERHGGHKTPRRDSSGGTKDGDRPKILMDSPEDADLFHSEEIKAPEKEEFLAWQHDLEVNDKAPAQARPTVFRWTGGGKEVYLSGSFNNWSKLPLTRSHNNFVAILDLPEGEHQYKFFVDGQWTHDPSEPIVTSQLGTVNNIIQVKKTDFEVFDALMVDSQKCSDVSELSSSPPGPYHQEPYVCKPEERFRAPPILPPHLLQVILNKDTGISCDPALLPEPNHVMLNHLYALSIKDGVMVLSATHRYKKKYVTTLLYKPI
Sequence of AMPKa1 (P54619 whole entry partner): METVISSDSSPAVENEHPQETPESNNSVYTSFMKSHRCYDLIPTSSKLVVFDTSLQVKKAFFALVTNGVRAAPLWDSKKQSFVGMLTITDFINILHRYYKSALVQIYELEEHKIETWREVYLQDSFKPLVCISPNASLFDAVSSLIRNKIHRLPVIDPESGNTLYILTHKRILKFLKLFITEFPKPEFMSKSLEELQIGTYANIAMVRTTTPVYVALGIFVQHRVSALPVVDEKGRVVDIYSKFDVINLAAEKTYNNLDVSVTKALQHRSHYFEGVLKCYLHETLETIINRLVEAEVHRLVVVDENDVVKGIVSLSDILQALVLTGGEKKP

- inhibition at 10 µM [1]: 97.7%
- inhibition at 10 µM [2]: 96.6%
- inhibition at 10 µM [3]: 95.2%
- Competition % [4]: 95.7%
- inhibition at 10 µM [5]: 90.4%
- inhibition at 10 µM [6]: 94.2%
- inhibition at 10 µM [7]: 96.9%
- inhibition at 10 µM [8]: 95.7%
SMILES: CS(=O)(=O)Nc1ccccc1Nc1nc(Nc2cccc(OCCN)c2)ncc1Cl [CZC31326, N-(2-(2-(3-(2-aminoethoxy)phenylamino)-5-chloropyrimidin-4-ylamino)phenyl)methanesulfonamide]
